What all share (assay): relative viability (nuclei count vs DMSO), 5 days (fraction); higher = more cells survive
Compound in the assay “Ricolinostat + Olaparib”: O=C(CCCCCCNC(=O)c1cnc(N(c2ccccc2)c2ccccc2)nc1)NO [Ricolinostat] + O=C(c1cc(Cc2n[nH]c(=O)c3ccccc23)ccc1F)N1CCN(C(=O)C2CC2)CC1 [Olaparib] (partner 8 µM)
Put shortly:
(§1)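 Lung cancer cell lines were pin-tool dosed in 1536-well plates on the day after seeding, with either a lone drug or a fixed anchor-drug dose plus five library-drug doses (not always all listed) in √10 steps. Nuclei were counted on 4× images after 5 days. Relative viability is the ratio of treated-well to vehicle-well nuclei counts, with each value a median of duplicate plates.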

Compound in assay [1]: C1=CC=C(C(=C1)C2=CC=C(C=C2)C3=CSC4=C3C(=C(C(=O)N4)C#N)O)O + CC(=O)Nc1cccc(-n2c(=O)n(C3CC3)c(=O)c3c(Nc4ccc(I)cc4F)n(C)c(=O)c(C)c32)c1 [Trametinib] (partner 0.02 µM)
In a few lines: as §1

Compound in assay [2]: O=C(CCCCCCNC(=O)c1cnc(N(c2ccccc2)c2ccccc2)nc1)NO [Ricolinostat] + N=C(N)NC(=N)NCCc1ccccc1 [Phenformin] (partner 250 µM)
Put shortly:
as §1

Compound in assay [3]: O=C(CCCCCCNC(=O)c1cnc(N(c2ccccc2)c2ccccc2)nc1)NO [Ricolinostat] + CC1(C)CCC(c2ccc(Cl)cc2)=C(CN2CCN(c3ccc(C(=O)NS(=O)(=O)c4ccc(N[C@H](CCN5CCOCC5)CSc5ccccc5)c(S(=O)(=O)C(F)(F)F)c4)cc3)CC2)C1 [Navitoclax] (partner 0.5 µM)
In a few lines:
as §1

In the case of NCI-H1648, the relative viability with Ricolinostat + Olaparib (first compound 0.253 µM) is 0.817; with Ricolinostat + Olaparib (first compound 0.8 µM), 0.407; in the assay with Ricolinostat + Olaparib (first compound 2.53 µM), 0.4; in assay [1] (first compound 0.253 µM), 0.487; in assay [1] (first compound 0.8 µM) it was 0.61; in assay [1] (first compound 2.53 µM), 0.546. In addition, the relative viability in assay [1] (first compound 8 µM) was 0.353.
Turning to NCI-H1755, the relative viability in the assay with Ricolinostat + Olaparib (first compound 0.08 µM) stood at 0.826; with Ricolinostat + Olaparib (first compound 0.253 µM) it was 0.809; in the assay with Ricolinostat + Olaparib (first compound 0.8 µM), 0.814; in the assay with Ricolinostat + Olaparib (first compound 2.53 µM), 0.739; in assay [2] (first compound 0.08 µM) it was 0.45; in assay [2] (first compound 0.253 µM), 0.6. Further, the relative viability in assay [2] (first compound 0.8 µM) came out at 0.608; in assay [2] (first compound 2.53 µM), 0.604; in assay [1] (first compound 0.08 µM), 0.758; in assay [1] (first compound 0.253 µM), 0.775; in assay [1] (first compound 0.8 µM), 0.8; in assay [1] (first compound 2.53 µM) it was 0.862. In addition, the relative viability was determined as 0.797 in assay [1] (first compound 8 µM), 0.864 in assay [3] (first compound 0.08 µM), 0.981 in assay [3] (first compound 0.8 µM) and 0.912 in assay [3] (first compound 2.53 µM).
As for PC-3 [JPC-3], the relative viability came to 0.865 with Ricolinostat + Olaparib (first compound 0.08 µM); 1.06 with Ricolinostat + Olaparib (first compound 0.253 µM); 1.07 in the assay with Ricolinostat + Olaparib (first compound 0.8 µM); 0.971 with Ricolinostat + Olaparib (first compound 2.53 µM); 0.472 in assay [2] (first compound 0.253 µM); 0.488 in assay [2] (first compound 0.8 µM). Besides, the relative viability was determined as 0.475 in assay [2] (first compound 2.53 µM); 0.756 in assay [1] (first compound 0.08 µM); 0.789 in assay [1] (first compound 0.253 µM); 0.683 in assay [1] (first compound 0.8 µM); 0.701 in assay [1] (first compound 2.53 µM); 0.692 in assay [1] (first compound 8 µM). Besides, the relative viability in assay [3] (first compound 0.08 µM) was found to be 0.778; in assay [3] (first compound 0.253 µM), 0.77; in assay [3] (first compound 0.8 µM), 0.739; in assay [3] (first compound 2.53 µM), 0.574.
For the cell line HCC-44, the relative viability with Ricolinostat + Olaparib (first compound 0.08 µM) came to 1.04; in the assay with Ricolinostat + Olaparib (first compound 0.253 µM), 0.922; in the assay with Ricolinostat + Olaparib (first compound 0.8 µM) it was 1.06; with Ricolinostat + Olaparib (first compound 2.53 µM), 1; in assay [2] (first compound 0.08 µM), 0.186; in assay [2] (first compound 0.253 µM), 0.265. Besides, the relative viability turned out to be 0.169 in assay [2] (first compound 0.8 µM); 0.166 in assay [2] (first compound 2.53 µM); 1.13 in assay [1] (first compound 0.08 µM); 1.15 in assay [1] (first compound 0.253 µM); 1.13 in assay [1] (first compound 0.8 µM); 0.937 in assay [1] (first compound 2.53 µM). The relative viability came to 0.927 in assay [1] (first compound 8 µM); 0.861 in assay [3] (first compound 0.08 µM); 1.04 in assay [3] (first compound 0.253 µM); 0.985 in assay [3] (first compound 0.8 µM); 0.93 in assay [3] (first compound 2.53 µM).
In the case of CAL-12T, the relative viability with Ricolinostat + Olaparib (first compound 0.08 µM) is 0.739; in the assay with Ricolinostat + Olaparib (first compound 0.253 µM), 0.732; with Ricolinostat + Olaparib (first compound 0.8 µM), 0.701; with Ricolinostat + Olaparib (first compound 2.53 µM) it was 0.77; in assay [2] (first compound 0.08 µM) it was 0.489; in assay [2] (first compound 0.253 µM) it was 0.548. The relative viability in assay [2] (first compound 0.8 µM) stood at 0.559; in assay [2] (first compound 2.53 µM), 0.517; in assay [1] (first compound 0.08 µM), 0.378; in assay [1] (first compound 0.253 µM), 0.381; in assay [1] (first compound 0.8 µM), 0.312; in assay [1] (first compound 2.53 µM), 0.333. The relative viability in assay [1] (first compound 8 µM) was found to be 0.27; in assay [3] (first compound 0.08 µM), 1.04; in assay [3] (first compound 0.253 µM), 1.01; in assay [3] (first compound 0.8 µM) it was 1.01; in assay [3] (first compound 2.53 µM), 1.11.
